Assay results published in patent US12303594B2, “Antimicrobial and anti-inflammatory compositions” (The Texas A&M University System, priority 2015, dated 2025).
≈ marks a conversion by molar mass, not a printed value.

What was measured:
[1] = Brunauer-Emmett-Teller specific surface area; format: physicochemical; conditions: for SSA: N = 3
Procedure: Brunauer-Emmett-Teller: Surface area (SA) was evaluated via a single-point BET method using a Monosorb® surface area analyzer (Quantrachrome Instruments; FL, USA) following 24 hour outgassing with helium at room temperature (RT) before each measurement in triplicate on a known powder mass (m). SSA was calculated using Equation 3: […]
Brunauer-Emmett-Teller (BET) specific surface area (SSA) measurements were taken. Surface area (SA) was evaluated via a single-point BET method using a Monosorb® surface area analyzer (Quantrachrome Instruments; FL, USA) following 24 hour outgassing with helium at room temperature before each measurement in triplicates. Samples masses (m) were at least 50 mg for the jet-milled powders depending on availability and 500 mg for the unprocessed samples. SSA was calculated according to the following formula: […]

[2] = Bulk and tapped density, compressibility index and Hausner ratio; format: physicochemical
Procedure: In this modified method, a 10 mL graduated cylinder fitted with a molded adapter substituted the 100 mL graduated cylinder in the tapped density tester. The compressibility index (CI) and Hausner ratio (HR) calculations were performed according to the following formulas: The tapped density (rT) calculations were performed using a tapped density tester (Agilent Technologies, Santa Clara, CA, USA) with a modified method from the USP for a small mass of powder. In this modified method, a 10 mL graduated cylinder fitted with a molded adapter substituted the 100 mL graduated cylinder for the calculations of the bulk density (rB) and the use in the tapped density tester. The compressibility index (CI) and the Hausner ratio (HR) calculations were performed according to the following formulas: […]

[3] = Particle size distribution by laser light diffraction; format: physicochemical
Procedure: The particle size distribution (PSD) D10, D50, and D90 values for each sample were defined as particle diameters at the 10th, 50th, and 90th percentile and the span value was calculated according to Equation 2: […]
PSD analysis by laser light diffraction: PSDs were determined using a Sympatec Helos equipped with a Cuvette module (System-Partikel-Technik GmbH, Clausthal-Zellerfeld, Germany). Data were analyzed using the Sympatec WINDOX software. For each measurement, per a previously optimized method, about 2 mg of powder was dispersed in 0.5 mL of 0.1% (w/v) sodium dodecyl sulfate in water and the sample was sonicated for 5 min. […] After the reference measurement, 50 μL aliquots of the sonicated suspension were added to the cell to achieve optical concentrations of between 10 to 20% and the total of six measurements were performed on each sample. Formulations immediately following air-jet milling (25IBU10.1, 25IBU10.2) and after 6 months (25IBU10.1**, 25IBU10.2**) stored at RT (IBU10.1), or at −80° C. (IBU10.2) were analyzed.
PSDs were determined using a Sympatec Helos equipped with a Cuvette module (System-Partikel-Technik GmbH, Clausthal-Zellerfeld, Germany). Data were analyzed using the Sympatec WINDOX software. For each measurement per a previously optimized method, about 2 mg of powder was dispersed in 0.5 mL of 0.1% (w/v) SLS in water and the sample was sonicated for 5 minutes. […] After the reference measurement, 50 μL aliquots of the sonicated suspension were added to the cell to achieve optical concentrations of between 10 to 20% and the total of six measurements were performed on each sample. Analyzed samples included: unprocessed IBU and IND as well as the milled samples from different sections of the jet mill including the tube after grinding chamber (bfC), the cyclone (C), the collection vessel adapter (D), the collection bag adapter (E), the collection vessel (G) and the collection bag (H) for each run. The span value was calculated according to Equation 2.
To estimate the overall D10, D50, and D90 values for the combined recovered fractions associated with each run, stacked bar charts were graphed and analyzed to determine the yield normalized cumulative PSDs. Each stacked bar corresponded to a particle size bin and its height corresponded to the volume density distributions' weighted averages by the yield for each segment of the jet mill. The D10, D50, and D90 values for the normalized cumulative PSDs were the particle sizes corresponding to the 10, 50, and 90% area of the stacked bar chart respectively.
Tween 20 and sodium lauryl sulfate (SLS) were purchased from Fisher Scientific (Fisher Scientific, Pittsburgh, PA, USA), and dH2O was used for preparing solutions. […] A reference measurement was done in 0.1% (v/v) Span 85 in light mineral oil. After a reference measurement, aliquots of […] of sonicated suspension were added to achieve optical concentrations from 10 to 20% for a total of six measurements.
Furthermore, D10, D50, and D90 values for each sample were defined as particle diameters at the 10th, 50th, and 90th percentile of the PSD. Span was calculated according to Equation 2. Normalized cumulative PSDs were composed of yield-normalized distributions, where they were depicted as stacked bar charts. D10, D50, and D90 values for normalized cumulative PSDs were calculated by approximating particle sizes associated with 10%, 50%, and 90% area of the stacked bar chart.

[4] = system: P. aeruginosa strain PA HP3; experiment: Disc diffusion assay; format: cell-based, Pseudomonas aeruginosa; conditions: MH agar with 100 μg/mL ibuprofen vs MH agar control
Procedure: A method for disc diffusion assay includes the following: The activity of five antibiotics (amikacin, aztreonam, ceftazidime, colistin, and tobramycin) was assessed against three strains of Pseudomonas aeruginosa (PAM57-15, PAO1 and PA HP3) using a disc diffusion assay. A single colony of P. aeruginosa was picked and grown to an optical density at 650 nm (OD650) of 0.4. […] Discs containing known quantities of the five previously mentioned antibiotics were placed on the two types of agar plates and incubated for 18 hours. The diameters of the zones of inhibition were measured and compared between the MH and MH+IBU plates.

[5] = system: Pseudomonas aeruginosa (strain PA HP3); experiment: Checkerboard assay with ibuprofen; format: cell-based; conditions: for MIC: Pseudomonas aeruginosa, read-out: MIC (with ibuprofen); for MIC (with ibuprofen): with 50 μg/mL of ibuprofen
PA HP3 = experiment: 24 hour end point colony forming units (CFU) count study; format: cell-based, Pseudomonas aeruginosa; conditions: P<0.0001
Procedure: A 24 hour end point colony forming units (CFU) count study was performed. […] Increasing concentrations of aztreonam and ceftazidime were loaded horizontally into each well of two separate 96-well plates starting with zero at the top of the plate. […] The plates were set on a platform shaker at 100 rpm in a 37° C. warm room for 24 hours. After the 24-hour incubation, each well was diluted by taking 50 μl culture into 450 μl of MH broth. A 50 μl aliquot of each dilution was plated on blood agar. This serial dilution step was repeated seven times for each well to reach countable numbers of colonies on the blood agar plates.

[6] = system: Pseudomonas aeruginosa (strain PA HP3); experiment: Minimum inhibitory concentration (MIC); format: cell-based; conditions: alone
Procedure: (§1) The final concentrations of aztreonam, ceftazidime and vancomycin were 0.06, 0.13, 0.25, 0.5, 1, 2, 4, 8, 16, 32, 64, and 128 μg/ml. The plates were incubated overnight at 37° C. […] Each triplicate was performed at least twice.

[7] = system: methicillin-resistant Staphylococcus aureus (strain MRSA 0646); experiment: Checkerboard assay with ibuprofen
Procedure: A method for checkerboard assay includes the following: The bacteria were diluted in the standard MH broth to a concentration of 5×10^5 in 100 μL, which was added to each well of a 96-well plate. Aztreonam, ceftazidime and vancomycin solutions were prepared from 10 mg/mL stocks in MH broth. […] The plates were incubated and read as noted for the MIC assay. Again, each triplicate was performed at least twice.
Interaction are defined as synergistic if the FIC index is <1, additive if the FIC index is =1 and antagonistic if the FIC index is >1.

[8] = system: methicillin-resistant Staphylococcus aureus (strain MRSA 0646); experiment: Minimum inhibitory concentration (MIC); format: cell-based
Procedure: as §1

[9] = Angle of repose (USP method); format: physicochemical; conditions: N = 3
Procedure: Angle of repose: Angles of repose were measured in triplicate according to the United States Pharmacopoeia (USP) method. Images of the powder mounds were taken using a digital camera and were analyzed using the ImageJ software (Wayne Rasband, Research Services Branch, National Institute of Mental Health, Bethesda, MD, USA). […]

[10] = Helium pycnometry true density; format: physicochemical; conditions: N = 3
Procedure: Helium pycnometry: True densities were measured using an MVP-D160-E multipycnometer (Quantrachrome Instruments; FL, USA) equipped with the micro cell and adapter. Measurements were conducted in triplicates. Before pressure measurements, the multipycnometer was purged with helium gas according to the manufacturer's recommendations.
True densities were measured using a MVP-D160-E multipycnometer (Quantrachrome Instruments; FL, USA). For density measurements, the micro cell and the micro cell adapter were used, and samples weighed at least 0.1 g for the jet-milled powders depending on availability and at least 0.6 g for the unprocessed powders.

[11] = Karl-Fischer moisture analysis; format: physicochemical; conditions: N = 3
Procedure: Karl-Fischer moisture analysis was performed. The moisture content of the unprocessed and jet-milled powders were measured in triplicates using a Photovolt Aqua-test™ 2010a Moisture Analyser (a.k.a. The CSC Aquapal III, CSC Scientific Inc., Fairfax, VA, USA). Powder moisture contents were calculated by subtracting the moisture content in 1 mL of anhydrous methanol (Fisher Scientific, Pittsburgh, PA, USA) from the moisture content reading from 5 mg powder dissolved in 1 mL of anhydrous methanol.

[12] = collection bag fraction or stock, Table 8
[13] = fraction used for testing (IBU collection bag, IND cyclone) or unprocessed powder
[14] = collection bag from jet-milled DFNa, cyclone from jet-milled DF
[15] = normalized cumulative particle size distribution of jet-milled powder

MIC [5]	MIC (with ibuprofen) [5]	MIC [6]	SMILES	diameters of the zones of inhibition [4]	SSA [1]	Angle of Repose [9]	CI [2]	HR [2]	ρT (tapped density) [2]	ρβ (bulk density) [2]	ρ (true density) [10]	D10 [3, 14]	D90 [3, 14]	Span [3, 14]	D10 [3, 15]	D90 [3, 15]	Span [3, 15]	D10 ([3]; unprocessed)	D90 ([3]; unprocessed)	Span ([3]; unprocessed)	also measured
–	–	–	COc1ccc2c(c1)c(CC(=O)O)c(C)n2C(=O)c1ccc(Cl)cc1 [unprocessed indomethacin, indomethacin]	–	–	–	–	–	–	–	–	–	–	–	–	–	–	–	–	–	surface area [1]: 0.435±0.039 m^2/g; Compressibility Index (CI) [2]: 44.7; Hausner Ratio (HR) [2]: 1.81; bulk density [2]: 0.321 g/mL; tap density [2]: 0.580 g/mL; D50 [3, 12]: 26.3 μm; D90 [3, 12]: 64.8 μm; Span [3, 12]: 2.3; Span [3, 13]: 2.25; median size (d50) [3, 13]: 26.3 μm
4 µg/mL	4 (50) μg/mL	16 µg/mL (≈ 29.3 µM)	CC(C)(O/N=C(\C(=O)N[C@@H]1C(=O)N2C(C(=O)[O-])=C(C[n+]3ccccc3)CS[C@H]12)c1csc(N)n1)C(=O)O [Ceftazidime, ceftazidime]	significantly increased	–	–	–	–	–	–	–	–	–	–	–	–	–	–	–	–	CFU counts (PA HP3; 2 or 4 μg/mL ceftazidime with 50 or 100 μg/mL ibuprofen vs ceftazidime alone): decreased significantly
2 µg/mL	2 (50) μg/mL	4 µg/mL (≈ 9.19 µM)	C[C@H]1[C@H](NC(=O)/C(=N\OC(C)(C)C(=O)O)c2csc(N)n2)C(=O)N1S(=O)(=O)O [Aztreonam, aztreonam]	significantly increased	–	–	–	–	–	–	–	–	–	–	–	–	–	–	–	–	CFU counts (PA HP3; 1 μg/mL aztreonam with 50 or 100 μg/mL ibuprofen vs aztreonam alone): decreased significantly
–	–	–	CN[C@H](CC(C)C)C(=O)N[C@H]1C(=O)N[C@@H](CC(N)=O)C(=O)N[C@H]2C(=O)N[C@H]3C(=O)N[C@H](C(=O)N[C@H](C(=O)O)c4cc(O)cc(O)c4-c4cc3ccc4O)[C@H](O)c3ccc(c(Cl)c3)Oc3cc2cc(c3O[C@@H]2O[C@H](CO)[C@@H](O)[C@H](O)[C@H]2O[C@H]2C[C@](C)(N)[C@H](O)[C@H](C)O2)Oc2ccc(cc2Cl)[C@H]1O [Vancomycin, vancomycin]	–	–	–	–	–	–	–	–	–	–	–	–	–	–	–	–	–	MIC ([7]; Staphylococcus aureus, MRSA, read-out: MIC (with ibuprofen)): 1 µg/mL; FIC index ([7]; combination with ibuprofen, <1 synergistic): < 1; MIC (with ibuprofen) ([7]; with 50 μg/mL of ibuprofen): 1 (50) μg/mL; MIC [8]: 2 µg/mL (≈ 1.38 µM)
–	–	–	O=C(O)Cc1ccccc1Nc1c(Cl)cccc1Cl [DFNa, diclofenac sodium]	–	1.37 ± 0.20 m^2/g	48.7 ± 5.5 °	45.24	1.83	0.69 g/mL	0.38 g/mL	1.51 ± 0.00 g/mL	1.06 μm	5.52 μm	1.64	1.29 μm	6.53 μm	1.61	2.02 μm	42.69 μm	2.08	Moisture content [11]: 1.88 ± 0.20%
–	–	–	O=C(O)Cc1ccccc1Nc1c(Cl)cccc1Cl [DF, diclofenac]	–	1.73 ± 0.18 m^2/g	34.5 ± 2.3 °	46.67	1.88	0.30 g/mL	0.16 g/mL	1.48 ± 0.01 g/mL	1.31 μm	4.73 μm	1.31	1.16 μm	4.48 μm	1.41	2.00 μm	17.34 μm	2.20	Moisture content [11]: 0.78 ± 0.18%
